# Measured values: paper PMC3618206, “High-throughput fluorescent-based NKCC functional assay in adherent epithelial cells” (BMC Cell Biology, 2013)
# Tested on: T1, c-NKCC2 (chimeric NKCC1-NKCC2 construct)
# T1 construct: gene SLC12A2; single polypeptide chimera: NKCC1 backbone with whole NKCC1 transmembrane domain, C-terminal apical sorting domain exchanged for that of mammalian NKCC2 isoform B; N-terminal HA tag; stably expressed in LLC-PK1 cells; NKCC2 part possibly rabbit; with Solute carrier family 12 member 1 (isoform B, C-terminal apical sorting domain)
# Assay: FluxOR Tl+ influx fluorescence, initial rate, FlexStation, stably transfected LLC-PK1 cells
# Assay type: cell-based
# Settings: external Cl- 3-135 mM (gluconate replacement); co-substrates Na+ and Tl+ (2 mM Tl2SO4), K+-free, pH 7.4; single-site fit; Cl- starved cells
structure (smiles),measurement,value
Cl [Cl^-],Km,23.4 mM
